From PubChem BioAssay (NCI)
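GI50 = concentration required for 50% inhibition of growth. Definition used: TGI = concentration required for complete inhibition of growth.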

Assays:
Assay in all cases: NCI anticancer screen, dose series, 384-well format
A498 renal = tested on: A498 renal
A549 NSCLC = tested on: A549 NSCLC
ACHN renal = tested on: ACHN renal
BT-549 breast = tested on: BT-549 breast
CAKI-1 renal = tested on: CAKI-1 renal
COLO 205 colon = tested on: COLO 205 colon
DU-145 prostate = tested on: DU-145 prostate
EKVX NSCLC = tested on: EKVX NSCLC
HCC-2998 colon = tested on: HCC-2998 colon
HCT-116 colon = tested on: HCT-116 colon
HCT-15 colon = tested on: HCT-15 colon
HL-60(TB) leukemia = tested on: HL-60(TB) leukemia
HOP-62 NSCLC = tested on: HOP-62 NSCLC
HOP-92 NSCLC = tested on: HOP-92 NSCLC
HS 578T breast = tested on: HS 578T breast
HT29 colon = tested on: HT29 colon
IGROV1 ovarian = tested on: IGROV1 ovarian
KM12 colon = tested on: KM12 colon
LOX IMVI melanoma = tested on: LOX IMVI melanoma
M14 melanoma = tested on: M14 melanoma
MALME-3M melanoma = tested on: MALME-3M melanoma
MCF7 breast = tested on: MCF7 breast
MDA-MB-231 breast = tested on: MDA-MB-231 breast
MDA-MB-435 melanoma = tested on: MDA-MB-435 melanoma
MDA-MB-468 breast = tested on: MDA-MB-468 breast
MOLT-4 leukemia = tested on: MOLT-4 leukemia
NCI-H226 lung = tested on: NCI-H226 lung
NCI-H23 lung = tested on: NCI-H23 lung
NCI-H322M lung = tested on: NCI-H322M lung
NCI-H460 NSCLC = tested on: NCI-H460 NSCLC
NCI-H522 lung = tested on: NCI-H522 lung
NCI/ADR-RES ovarian = tested on: NCI/ADR-RES ovarian
OVCAR-3 ovarian = tested on: OVCAR-3 ovarian
OVCAR-4 ovarian = tested on: OVCAR-4 ovarian
OVCAR-5 ovarian = tested on: OVCAR-5 ovarian
OVCAR-8 ovarian = tested on: OVCAR-8 ovarian
PC-3 prostate = tested on: PC-3 prostate
RPMI-8226 leukemia = tested on: RPMI-8226 leukemia
RXF 393 renal = tested on: RXF 393 renal
SF-268 CNS = tested on: SF-268 CNS
SF-295 CNS = tested on: SF-295 CNS
SF-539 CNS = tested on: SF-539 CNS
SK-MEL-28 melanoma = tested on: SK-MEL-28 melanoma
SK-MEL-5 melanoma = tested on: SK-MEL-5 melanoma
SK-OV-3 ovarian = tested on: SK-OV-3 ovarian
SN12C renal = tested on: SN12C renal
SNB-19 CNS = tested on: SNB-19 CNS
SNB-75 CNS = tested on: SNB-75 CNS
SR leukemia = tested on: SR leukemia
T-47D breast = tested on: T-47D breast
TK-10 renal = tested on: TK-10 renal
U251 glioblastoma = tested on: U251 glioblastoma
UACC-257 melanoma = tested on: UACC-257 melanoma
UACC-62 melanoma = tested on: UACC-62 melanoma

## NC(=O)c1ccc(N(C(N)=O)c2c(F)cccc2F)nc1-c1ccc(F)cc1F
A498 renal
  GI50: > 100 µM
  TGI: > 100 µM
A549 NSCLC
  GI50: > 100 µM
  TGI: > 100 µM
ACHN renal
  GI50: > 100 µM
  TGI: > 100 µM
BT-549 breast
  GI50: > 100 µM
  TGI: > 100 µM
CAKI-1 renal
  GI50: > 100 µM
  TGI: > 100 µM
COLO 205 colon
  GI50: > 100 µM
  TGI: > 100 µM
DU-145 prostate
  GI50: > 100 µM
  TGI: > 100 µM
EKVX NSCLC
  GI50: > 100 µM
  TGI: > 100 µM
HCC-2998 colon
  GI50: > 100 µM
  TGI: > 100 µM
HCT-116 colon
  GI50: > 100 µM
  TGI: > 100 µM
HCT-15 colon
  GI50: > 100 µM
  TGI: > 100 µM
HL-60(TB) leukemia
  GI50: > 100 µM
  TGI: > 100 µM
HOP-62 NSCLC
  GI50: > 100 µM
  TGI: > 100 µM
HOP-92 NSCLC
  GI50: > 100 µM
  TGI: > 100 µM
HS 578T breast
  GI50: > 100 µM
  TGI: > 100 µM
HT29 colon
  GI50: > 100 µM
  TGI: > 100 µM
IGROV1 ovarian
  GI50: > 100 µM
  TGI: > 100 µM
KM12 colon
  GI50: > 100 µM
  TGI: > 100 µM
LOX IMVI melanoma
  GI50: > 100 µM
  TGI: > 100 µM
M14 melanoma
  GI50: > 100 µM
  TGI: > 100 µM
MALME-3M melanoma
  GI50: > 100 µM
  TGI: > 100 µM
MCF7 breast
  GI50: > 100 µM
  TGI: > 100 µM
MDA-MB-231 breast
  GI50: > 100 µM
  TGI: > 100 µM
MDA-MB-435 melanoma
  GI50: > 100 µM
  TGI: > 100 µM
MDA-MB-468 breast
  GI50: > 100 µM
  TGI: > 100 µM
MOLT-4 leukemia
  GI50: > 100 µM
  TGI: > 100 µM
NCI-H226 lung
  GI50: > 100 µM
  TGI: > 100 µM
NCI-H23 lung
  GI50: > 100 µM
  TGI: > 100 µM
NCI-H322M lung
  GI50: > 100 µM
  TGI: > 100 µM
NCI-H460 NSCLC
  GI50: > 100 µM
  TGI: > 100 µM
NCI-H522 lung
  GI50: > 100 µM
  TGI: > 100 µM
NCI/ADR-RES ovarian
  GI50: > 100 µM
  TGI: > 100 µM
OVCAR-3 ovarian
  GI50: > 100 µM
  TGI: > 100 µM
OVCAR-4 ovarian
  GI50: > 100 µM
  TGI: > 100 µM
OVCAR-5 ovarian
  GI50: > 100 µM
  TGI: > 100 µM
OVCAR-8 ovarian
  GI50: > 100 µM
  TGI: > 100 µM
PC-3 prostate
  GI50: > 100 µM
  TGI: > 100 µM
RPMI-8226 leukemia
  GI50: > 100 µM
  TGI: > 100 µM
RXF 393 renal
  GI50: > 100 µM
  TGI: > 100 µM
SF-268 CNS
  GI50: > 100 µM
  TGI: > 100 µM
SF-295 CNS
  GI50: > 100 µM
  TGI: > 100 µM
SF-539 CNS
  GI50: > 100 µM
  TGI: > 100 µM
SK-MEL-28 melanoma
  GI50: > 100 µM
  TGI: > 100 µM
SK-MEL-5 melanoma
  GI50: > 100 µM
  TGI: > 100 µM
SK-OV-3 ovarian
  GI50: > 100 µM
  TGI: > 100 µM
SN12C renal
  GI50: > 100 µM
  TGI: > 100 µM
SNB-19 CNS
  GI50: > 100 µM
  TGI: > 100 µM
SNB-75 CNS
  GI50: > 100 µM
  TGI: > 100 µM
SR leukemia
  GI50: 98.2 µM
  TGI: > 100 µM
T-47D breast
  GI50: > 100 µM
  TGI: > 100 µM
TK-10 renal
  GI50: > 100 µM
  TGI: > 100 µM
U251 glioblastoma
  GI50: > 100 µM
  TGI: > 100 µM
UACC-257 melanoma
  GI50: > 100 µM
  TGI: > 100 µM
UACC-62 melanoma
  GI50: > 100 µM
  TGI: > 100 µM
